Laboratory results taken from patent publication US11370761B2, “Voltage-dependent T-type calcium channel inhibitor” (Nippon Chemiphar Co., Ltd., priority 2017, dated 2022).

Tests used:
human Cav3.2 channel [1] = target: T1, human Cav3.2 channel (Homo sapiens, UniProt O95180); assay: Electrophysiological evaluation, automated whole-cell patch clamp of Cav3.2 channel current (Pharmacological Test 2); format: cell-based; conditions: for inhibition at 0.3 µM: read-out: Cav3.2 channel current inhibition rate in test compound of 0.3 μM (holding potential of −80 mV) (%); for inhibition at 3 µM: 3 μM test compound, holding potential −100 mV, read-out: Cav3.2 channel current inhibition rate in test compound of 3 μM (holding potential of −100 mV) (%)
T1 construct: expressed in transfected cells
Experimental: The human Cav3.2 channel expressing stable cell line prepared by the test method (1) of Example 36 was seeded in a 10-cm dish using a DMEM medium containing 10% FBS, followed by culturing 37° C. for 24 hours under a 5% CO2 condition. The cells were detached using Accutase, and suspended in ice-cooled extracellular fluid for use. A Cav3.2 channel current was measured using an automated patch clamp system (Port-a-Patch; Nanion Technologies, EPC-10; HEKA Elektronik GmbH, Patchmaster; HEKA Elektronik GmbH) and buffers shown below, by a whole-cell patch-clamp method. The measurement of the Cav3.2 channel current was performed at room temperature, a measurement condition was a holding potential of −80 mV, a depolarization potential was −20 mV, a depolarization time was 100 msec, and a depolarization frequency was 10 sec. The Cav3.2 channel current was a peak value of an inward current observed at the time of depolarization to −20 mV.
The test compound was obtained by diluting a DMSO solution 1000 times with extracellular fluid to prepare a solution having a target concentration. The test compound was applied using an external perfusion system (Nanion Technologies) until the Cav3.2 channel current was stabilized, and a maximum of five concentrations from the low concentration side were cumulatively applied. An inhibition rate of the test compound was calculated from a change rate between a current value immediately before application of the test compound and the Cav3.2 channel current after application of the test compound (in a condition of holding potential of −80 mV, a concentration of the test compound was 0.3 μM, and in a condition of holding potential of −100 mV, a concentration of the test compound was 3 μM).
Extracellular fluid: 135 mM NaCl, 4 mM KCl, 1 mM MgCl2, 5 mM CaCl2, 5 mM D-Glucose, 10 mM HEPES, pH 7.4
Electrode internal fluid: 10 mM NaCl, 10 mM HEPES, 50 mM CsCl, 60 mM Cs-Fluoride, 20 mM EGTA, pH 7.2

human Cav3.2 channel [2] = target: T1, human Cav3.2 channel; assay: Intracellular calcium concentration measurement in human Cav3.2 channel expressing stable cell line (Pharmacological Test 1); format: cell-based; conditions: HEK293 cells stably expressing human Cav3.2, Fluo-4 AM fluorescence, KCl stimulation; read-out: Cav3.2 channel inhibitory action
Description: (1) Construction of Human Cav3.2 Channel Expressing Stable Cell Line
A sequence in which a HindIII site and a kozak sequence (GCCACC) was provided on a 5′ side of a human Cav3.2 channel open reading frame (ORF) gene and a KpnI site was provided on a 3′ side thereof was incorporated into pcDNA3.1(+) (Thermo Fisher Scientific #V790-20), and the resultant was transfected into a HEK293 cell (ATCC No. CRL-1573) according to a protocol of FuGENE (registered trademark) HD Transfection Reagent (Promega #E2311).
(2) Method of Measuring Intracellular Calcium Concentration
The human Cav3.2 channel expressing stable cell line prepared by the test method (1) was seeded in a 96-well plate using a Dulbecco's modified Eagle's medium (DMEM medium) containing 10% fetal bovine serum (FBS), followed by culturing 37° C. for 48 hours under a 5% CO2 condition. Thereafter, the medium was removed, and each well washed with an A buffer was treated with 80 μL of a fluorescent dye solution containing a liquid mixture of 22 μg of a calcium fluorescent indicator Fluo-4 AM (Dojindo Molecular Technologies, Inc., #F311), 20 μL of dimethyl sulfoxide (DMSO), 1 μL of 10% Pluronic F-127 (Thermo Fisher Scientific #P6866), and 4 mL of the A buffer. After being left to stand for 45 minutes at room temperature under a light shielding condition, the cells were washed with a B buffer. In DMSO having the same final concentration as the test compound as a negative control, and the test compound dissolved in DMSO to have a final concentration of 0.1%, each test compound concentration solution containing the B buffer was added to each well. The cells were left to stand for additional 15 minutes at room temperature under a light shielding condition, and were measured using microplate reader EnVision (PerkinElmer Co., Ltd.) by the following method. First, after measuring background fluorescence in each well, an ionophore was added, and baseline fluorescence was measured. Thereafter, B buffer containing added KCl at a concentration of 83.8 mM was added to each well, and an increase in fluorescence due to calcium influx caused by the stimulation was measured for 10 seconds. Inhibition percentage was calculated from the maximum fluorescence increase value from the baseline, and an IC50 value was calculated by plotting a logarithmic value of the test compound concentration and inhibition activity. The measurement was performed by observing fluorescence of 510 nm emitted when the cells were irradiated with excitation light of 485 nm.
A buffer: 140 mM NaCl, 5 mM KCl, 1 mM MgCl2, 0.5 mM CaCl2, 10 mM Glucose, 10 mM HEPES, pH 7.3
B buffer: potassium equilibrium potential: −92 mV

[3] = system: mouse partial sciatic nerve ligation (PSNL) model; assay: Mechanical allodynia in mouse partial sciatic nerve ligation (PSNL) model, von Frey filament test (Pharmacological Test 3); format: in vivo; conditions: 30 mg/kg orally administered
Experimental: A mouse PSNL model was prepared according to a method of Seltzer et al. A mouse was anesthetized by inhalation with isoflurane. A femoral region of the mouse was shaved and disinfected with isodine. Skin on a femur of the mouse was incised, fascia just below the skin was cut off, and muscle heads of musculus biceps femoris were divided. After confirmation of sciatic nerves just below the muscle, and the sciatic nerves were separated without damage. ½ to ⅓ of the sciatic nerve was penetrated by a needle with 8-0 silk and ligated. The skin was sutured and the mouse was reared for about 7 days. In surgery of a sham control mouse, only confirmation of the sciatic nerves was performed and then the skin was sutured.
A pain threshold was measured after moving the mice to a cage for measurement and waiting for the exploratory behavior to disappear. Regarding the pain threshold (paw withdrawal filament ((g)), soles of the mice were stimulated with von Frey filaments (Sttoelting Co.: TOUCH-TEST SENSORY EVLUATOR) having different stimulation intensities, and the presence or absence of avoidance response was observed. A 50% threshold was calculated by an up down method with reference to a method of Chaplan et al. (Quantitative assessment of tactile allodynia in the rat paw. J neurosci Methods, 53, 1994, 55 to 63). […]

[4] = 0.3 μM test compound, holding potential −80 mV, depolarization to −20 mV

T1 sequence (O95180 whole entry): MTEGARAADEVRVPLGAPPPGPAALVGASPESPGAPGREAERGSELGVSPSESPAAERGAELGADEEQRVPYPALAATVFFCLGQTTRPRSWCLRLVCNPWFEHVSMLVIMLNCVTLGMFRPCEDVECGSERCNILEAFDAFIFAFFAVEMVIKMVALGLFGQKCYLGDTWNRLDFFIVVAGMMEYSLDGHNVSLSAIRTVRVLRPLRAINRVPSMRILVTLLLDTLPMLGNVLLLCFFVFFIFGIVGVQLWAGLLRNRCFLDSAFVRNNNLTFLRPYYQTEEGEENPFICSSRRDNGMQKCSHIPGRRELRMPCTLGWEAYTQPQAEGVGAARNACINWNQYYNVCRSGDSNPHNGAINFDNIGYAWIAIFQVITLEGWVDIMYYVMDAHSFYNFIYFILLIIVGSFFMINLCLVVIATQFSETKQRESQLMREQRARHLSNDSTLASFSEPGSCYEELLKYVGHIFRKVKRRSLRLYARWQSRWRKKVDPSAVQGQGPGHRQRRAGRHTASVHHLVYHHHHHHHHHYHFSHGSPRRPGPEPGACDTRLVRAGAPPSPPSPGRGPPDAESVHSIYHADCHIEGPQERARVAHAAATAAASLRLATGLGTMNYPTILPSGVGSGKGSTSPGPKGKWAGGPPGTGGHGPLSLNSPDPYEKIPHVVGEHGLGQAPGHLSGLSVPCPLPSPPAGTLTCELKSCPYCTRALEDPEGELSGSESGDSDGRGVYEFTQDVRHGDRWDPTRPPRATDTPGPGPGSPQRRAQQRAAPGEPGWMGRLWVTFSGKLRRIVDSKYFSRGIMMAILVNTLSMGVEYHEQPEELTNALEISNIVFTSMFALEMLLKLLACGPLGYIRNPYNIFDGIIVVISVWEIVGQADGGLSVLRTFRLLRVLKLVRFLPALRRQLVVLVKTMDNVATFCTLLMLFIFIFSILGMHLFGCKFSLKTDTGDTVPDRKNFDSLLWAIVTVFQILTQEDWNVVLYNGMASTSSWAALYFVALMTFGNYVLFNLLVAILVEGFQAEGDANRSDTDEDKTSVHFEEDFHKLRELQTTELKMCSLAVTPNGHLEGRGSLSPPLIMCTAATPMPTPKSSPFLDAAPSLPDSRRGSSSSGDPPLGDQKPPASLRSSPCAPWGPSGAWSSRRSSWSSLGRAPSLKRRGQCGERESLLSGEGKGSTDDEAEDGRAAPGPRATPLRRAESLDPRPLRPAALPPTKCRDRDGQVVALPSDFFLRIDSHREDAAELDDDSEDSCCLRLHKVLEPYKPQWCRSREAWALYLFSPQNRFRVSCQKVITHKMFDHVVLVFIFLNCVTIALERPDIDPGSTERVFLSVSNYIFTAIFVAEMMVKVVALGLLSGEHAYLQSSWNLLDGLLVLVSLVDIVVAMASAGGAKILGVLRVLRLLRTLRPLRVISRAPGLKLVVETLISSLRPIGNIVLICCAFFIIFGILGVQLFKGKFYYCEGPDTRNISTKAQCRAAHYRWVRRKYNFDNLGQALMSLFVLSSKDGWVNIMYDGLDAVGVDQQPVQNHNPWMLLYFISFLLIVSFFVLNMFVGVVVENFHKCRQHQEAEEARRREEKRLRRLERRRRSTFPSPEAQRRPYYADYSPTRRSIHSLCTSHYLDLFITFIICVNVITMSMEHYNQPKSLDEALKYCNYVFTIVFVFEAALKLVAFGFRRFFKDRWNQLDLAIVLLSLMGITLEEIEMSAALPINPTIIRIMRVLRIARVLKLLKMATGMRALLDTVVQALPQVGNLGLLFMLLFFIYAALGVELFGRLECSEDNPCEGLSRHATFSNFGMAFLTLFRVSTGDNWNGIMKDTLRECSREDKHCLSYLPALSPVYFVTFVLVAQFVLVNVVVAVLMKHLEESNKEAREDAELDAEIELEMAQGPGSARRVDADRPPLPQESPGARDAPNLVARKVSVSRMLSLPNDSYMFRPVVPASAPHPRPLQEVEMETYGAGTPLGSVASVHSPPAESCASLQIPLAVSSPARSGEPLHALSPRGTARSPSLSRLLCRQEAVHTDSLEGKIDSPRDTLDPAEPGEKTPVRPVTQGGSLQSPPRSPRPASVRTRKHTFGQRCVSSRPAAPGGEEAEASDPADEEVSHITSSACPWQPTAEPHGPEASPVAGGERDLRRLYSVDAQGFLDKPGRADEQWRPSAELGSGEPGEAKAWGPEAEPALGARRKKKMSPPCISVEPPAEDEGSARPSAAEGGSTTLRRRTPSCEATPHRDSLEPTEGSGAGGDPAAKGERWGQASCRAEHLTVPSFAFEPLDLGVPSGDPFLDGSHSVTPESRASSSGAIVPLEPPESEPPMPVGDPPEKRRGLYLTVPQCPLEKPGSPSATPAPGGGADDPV

Row | SMILES | inhibition at 0.3 µM (human Cav3.2 channel [1]; [4]) | inhibition at 3 µM (human Cav3.2 channel [1]) | IC50 (human Cav3.2 channel [2]) | Cav3.2 channel current inhibition rate in test compound of 0.3 μM (holding potential of −80 mV) (%) (human Cav3.2 channel [1]; 0.3 μM test compound, holding potential −80 mV, depolarization to −20 mV, 0.3 µM) | mechanical allodynia (pain threshold, von Frey filament test) compared to the vehicle group [3]
1 | O=C(NC1(C(=O)Nc2ccc(C(F)(F)F)cc2)CC1)[C@@H]1C[C@H]1c1nc2ccccc2[nH]1 (relative stereo) [Example 21, Trans-1-(2-(1H-benzo[d]imidazol-2-yl)cyclopropane-1-carboxamido)-N-(4-(trifluoromethyl)phenyl) cyclopropane-1-carboxamide] | 51% | 41% | 100 to 1000 nM | – | –
2 | CCCc1ccc(NC(=O)C(C)NC(=O)C2CC2c2nc3ccccc3[nH]2)cc1 (single isomer, unassigned) [Example 1A, Trans-2-(1H-benzo[d]imidazol-2-yl)-N-(1-oxo-1-((4-propylphenyl)amino)propan-2-yl) cyclopropane-1-carboxamide] | 86% | – | 100 to 1000 nM | – | –
3 | CC(NC(=O)C1CC1c1nc2ccccc2[nH]1)C(=O)Nc1cnc(Br)cn1 (single isomer, unassigned) [Example 18A, Trans-2-(1H-benzo[d]imidazol-2-yl)-N-(1-((5-bromopyrazin-2-yl)amino)-1-oxopropan-2-yl) cyclopropane-1-carboxamide] | 46% | – | 100 to 1000 nM | – | –
4 | O=C(NC1(C(=O)Nc2cccc(C(F)(F)F)c2)CC1)[C@H]1C[C@@H]1c1nc2ccccc2[nH]1 [Example 22, 1-((1S, 2S)-2-(1H-Benzo[d]imidazol-2-yl)cyclopropane-1-carboxamido)-N-(3-(trifluoromethyl)phenyl) cyclopropane-1-carboxamide] | 95% | – | ≤ 100 nM | – | –
5 | O=C(NC1(C(=O)Nc2ccc(OC(F)(F)F)cc2)CC1)[C@H]1C[C@@H]1c1nc2ccccc2[nH]1 [Example 24, 1-((1S, 2S)-2-(1H-Benzo[d]imidazol-2-yl)cyclopropane-1-carboxamido)-N-(4-(trifluoromethoxy)phenyl) cyclopropane-1-carboxamide] | 68% | – | ≤ 100 nM | – | –
6 | O=C(NC1(C(=O)Nc2ccc(C(F)(F)F)cc2)CC1)[C@H]1C[C@@H]1c1nc2ccccc2[nH]1 [Example 26, 1-((1S, 2S)-2-(1H-Benzo[d]imidazol-2-yl)cyclopropane-1-carboxamido)-N-(4-(trifluoromethyl)phenyl) cyclopropane-1-carboxamide] | 84% | – | ≤ 100 nM | – | statistically significantly suppressed
7 | C[C@@H](NC(=O)C1CC1c1nc2ccccc2[nH]1)c1cnc(OCC(F)(F)F)cn1 (stereo partly drawn) [RQ-00311651, reference compound] | 17% | 14% | – | – | –

Now from value to molecule, other results behind:

Row | inhibition at 0.3 µM (human Cav3.2 channel [1]; [4]) | inhibition at 3 µM (human Cav3.2 channel [1]) | IC50 (human Cav3.2 channel [2]) | Cav3.2 channel current inhibition rate in test compound of 0.3 μM (holding potential of −80 mV) (%) (human Cav3.2 channel [1]; 0.3 μM test compound, holding potential −80 mV, depolarization to −20 mV, 0.3 µM) | SMILES | mechanical allodynia (pain threshold, von Frey filament test) compared to the vehicle group [3]
8 | 39% | 32% | 100 to 1000 nM | – | O=C(CNC(=O)[C@@H]1C[C@H]1c1nc2ccccc2[nH]1)Nc1ccc(C(F)(F)F)cc1 (relative stereo) [Example 20, Trans-2-(1H-benzo[d]imidazol-2-yl)-N-(2-oxo-2-((4-(trifluoromethyl)phenyl)amino)ethyl) cyclopropane-1-carboxamide] | –
9 | 43% | 38% | 100 to 1000 nM | – | CC(NC(=O)C1CC1c1nc2ccccc2[nH]1)C(=O)Nc1ccc(C(F)(F)F)cc1 (single isomer, unassigned) [Example 4A, Trans-2-(1H-benzo[d]imidazol-2-yl)-N-(1-oxo-1-((4-(trifluoromethyl)phenyl)amino)propan-2-yl) cyclopropane-1-carboxamide] | –
10 | – | – | 100 to 1000 nM | 23% | CC(NC(=O)C1CC1c1nc2ccccc2[nH]1)C(=O)Nc1ccc(C(F)(F)F)cc1 (single isomer, unassigned) [Example 4B, Trans-2-(1H-benzo[d]imidazol-2-yl)-N-(1-oxo-1-((4-(trifluoromethyl)phenyl)amino)propan-2-yl) cyclopropane-1-carboxamide] | –
11 | 74% | 32% | 100 to 1000 nM | – | CC(NC(=O)C1CC1c1nc2ccccc2[nH]1)C(=O)Nc1ccc(C(F)(F)F)nc1 (single isomer, unassigned) [Example 5A, Trans-2-(1H-benzo[d]imidazol-2-yl)-N-(1-oxo-1-((6-(trifluoromethyl)pyridin-3-yl)amino)propan-2-yl) cyclopropane-1-carboxamide] | statistically significantly suppressed
12 | 30% | – | 100 to 1000 nM | – | CC(NC(=O)C1CC1c1nc2ccccc2[nH]1)C(=O)Nc1ccc(C(C)(C)C)cc1 (single isomer, unassigned) [Example 7A, Trans-2-(1H-benzo[d]imidazol-2-yl)-N-(1-((4-(tert-butyl)phenyl)amino)-1-oxopropan-2-yl) cyclopropane-1-carboxamide] | –
